Among the test systems are OVCAR-8; HCT-15; MCF7; CAKI-1; RPMI-8226; HOP-92; SK-MEL-5; NCI-H522; RXF 393; COLO 205; SNB-75; SNB-19; HCT-116; HOP-62; 786-0; SK-MEL-2; HL-60; NCI-H460; UACC-62; MDA-MB-435.
Assay in all cases: growth of human tumour cells (NCI), 48 h

Structures are written as SMILES.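 Method: 48-hour compound exposure of cells in 96-well plates, five concentrations, linear interpolation of endpoints. GI50 marks 50% less growth.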 Active and inactive are the calls of the source. Cut-off read from the data, not from the text of the source: active = GI50 up to about 1.1 µM and inactive = higher.

Consider `Cn1c(N)c(/C=C/C(=O)Oc2ccccc2)c(=O)n(C)c1=O`, for which the GI50 in the experiment with OVCAR-8 is 30.6 µM (inactive); with HCT-15, > 100 µM; in the experiment on MCF7, 47.9 µM (inactive); in the experiment with CAKI-1, 29 µM (inactive); in the experiment on RPMI-8226, > 100 µM (inactive); in the experiment with HOP-92, 22.3 µM (inactive). Moreover, the GI50 in the experiment with SK-MEL-5 was > 100 µM (inactive); in the experiment on NCI-H522, > 100 µM (inactive); in the experiment with RXF 393 it was 44.2 µM (inactive); with COLO 205, > 100 µM (inactive); in the experiment with SNB-75 it was 24.2 µM (inactive); in the experiment on SNB-19, 59.3 µM (inactive). Also, the GI50 in the experiment on HCT-116 is > 100 µM (inactive); in the experiment on HOP-62 it was 19.1 µM (inactive); in the experiment with 786-0, 78.9 µM (inactive); in the experiment with SK-MEL-2 it was > 100 µM (inactive); with HL-60 it was > 100 µM (inactive); in the experiment on NCI-H460, > 100 µM (inactive). The GI50 in the experiment on UACC-62 and in the experiment on MDA-MB-435 was > 100 µM (inactive) each time.

Take `C[n+]1c(-c2ccc(/C=C/C=N\NC(=O)c3ccc(C(=O)N/N=C\C=C\c4ccc(-c5cn6ccccc6[n+]5C)cc4)cc3)cc2)cn2ccccc21`: the GI50 in the experiment with OVCAR-8 was > 100 µM (inactive); in the experiment on HCT-15 it was > 100 µM; in the experiment on MCF7 it was > 94.8 µM (inactive); with CAKI-1, 38.7 µM (inactive); with RPMI-8226, 38.1 µM (inactive); with HOP-92, > 100 µM (inactive). The GI50 in the experiment on SK-MEL-5 was > 84.5 µM (inactive); with NCI-H522 it was > 100 µM (inactive); with RXF 393, > 96.2 µM (inactive); with COLO 205, > 100 µM (inactive); in the experiment on SNB-75, > 100 µM (inactive); in the experiment on SNB-19, > 63.4 µM (inactive). Besides, the GI50 with HCT-116 is > 100 µM (inactive); in the experiment with HOP-62, > 100 µM (inactive); in the experiment with 786-0 it was 30.3 µM (inactive); in the experiment on SK-MEL-2, > 100 µM (inactive); in the experiment with HL-60, 30.2 µM (inactive); in the experiment on NCI-H460 it was > 100 µM (inactive). Moreover, the GI50 in the experiment on UACC-62 and in the experiment on MDA-MB-435 was > 100 µM (inactive) in each case.

With `COc1ccc(NC(=O)CC(=O)N2N=C(C)C(/N=N/c3ccc(C(=O)O)cc3)C2=O)cc1` (stereo not given), the GI50 is > 100 µM (inactive) in the experiment with OVCAR-8; > 100 µM with HCT-15; > 100 µM (inactive) in the experiment on MCF7; > 100 µM (inactive) in the experiment with CAKI-1; > 10 µM (inactive) in the experiment on RPMI-8226; > 100 µM (inactive) in the experiment with HOP-92. Also, the GI50 with SK-MEL-5 is > 100 µM (inactive); in the experiment on NCI-H522 it was > 100 µM (inactive); in the experiment on RXF 393, > 100 µM (inactive); in the experiment with COLO 205, > 100 µM (inactive); in the experiment with SNB-75, 77.3 µM (inactive); in the experiment with SNB-19, > 100 µM (inactive). Moreover, the GI50 with HCT-116, with HOP-62, in the experiment with 786-0, in the experiment with SK-MEL-2, with HL-60 and with NCI-H460 was > 100 µM (inactive) in each case. In addition, the GI50 in the experiment on UACC-62 and in the experiment with MDA-MB-435 was > 100 µM (inactive) throughout.

As to `CC(=O)OCC(=O)O[C@@H]1[C@H]2[C@@H](OC(=O)c3ccccc3)[C@@H](C)C[C@]2(O)[C@H](OC(C)=O)[C@@]2(C)C(OC(C)=O)[C@]1(OC(C)=O)C[C@H]1C(=O)C(C)(C)C[C@@H]12` (stereo not given in full), the GI50 in the experiment with OVCAR-8 is > 50 µM (inactive); with HCT-15, > 47.1 µM; in the experiment with MCF7 it was > 50 µM (inactive); in the experiment on CAKI-1 it was 37.6 µM (inactive); in the experiment with RPMI-8226, 13.3 µM (inactive); in the experiment with HOP-92 it was > 31.7 µM (inactive). The GI50 is 31 µM (inactive) in the experiment on SK-MEL-5; > 50 µM (inactive) in the experiment with NCI-H522; > 50 µM (inactive) with RXF 393; 12.8 µM (inactive) with COLO 205; > 50 µM (inactive) in the experiment on SNB-75; > 50 µM (inactive) with SNB-19. Further, the GI50 in the experiment on HCT-116 was > 50 µM (inactive); in the experiment with HOP-62, > 22.6 µM (inactive); in the experiment with 786-0 it was > 50 µM (inactive); in the experiment on SK-MEL-2, > 50 µM (inactive); in the experiment on HL-60, 6.46 µM (inactive); in the experiment with NCI-H460, 4.12 µM (inactive). Also, the GI50 was > 50 µM (inactive) with UACC-62 and 26.2 µM (inactive) with MDA-MB-435.

`C/C(=N\N=C(/S)SCc1ccccc1)c1ccccn1`: the GI50 is < 0.01 µM (active) in the experiment on OVCAR-8; < 0.01 µM in the experiment with HCT-15; < 0.01 µM (active) in the experiment on MCF7; < 0.0504 µM (active) with CAKI-1; < 0.01 µM (active) in the experiment with RPMI-8226; < 0.0105 µM (active) in the experiment with HOP-92. Further, the GI50 in the experiment with SK-MEL-5 was 0.0635 µM (active); in the experiment on NCI-H522, 0.311 µM (active); in the experiment with RXF 393 it was 1.28 µM (inactive); in the experiment with COLO 205 it was < 0.01 µM (active); in the experiment on SNB-75, 2.92 µM (inactive); in the experiment on SNB-19 it was 2.97 µM (inactive). The GI50 with HCT-116 is < 0.01 µM (active); in the experiment on HOP-62 it was < 0.01 µM (active); in the experiment on 786-0, < 0.01 µM (active); with SK-MEL-2, 1.27 µM (inactive); with HL-60, < 0.01 µM (active); in the experiment on NCI-H460, 0.26 µM (active). Moreover, the GI50 was 0.463 µM (active) in the experiment with UACC-62 and 1.02 µM (active) in the experiment on MDA-MB-435.

On to `COc1ccc2nc(C)cc(NCCCCCCCCCNc3cc(C)nc4ccc(OC)cc34)c2c1`, for which the GI50 in the experiment with OVCAR-8 is 0.527 µM (active); in the experiment with HCT-15, 2.3 µM; in the experiment on MCF7, 1.21 µM (inactive); with CAKI-1, 6.67 µM (inactive); in the experiment on RPMI-8226, 1.11 µM (active); with HOP-92, 1.24 µM (inactive). For the same molecule, the GI50 is 1.71 µM (inactive) in the experiment with SK-MEL-5; 0.834 µM (active) with NCI-H522; 2.05 µM (inactive) with RXF 393; 2.28 µM (inactive) with COLO 205; 4.14 µM (inactive) in the experiment with SNB-75; 2.67 µM (inactive) in the experiment on SNB-19. The GI50 was 0.279 µM (active) in the experiment on HCT-116; 2.26 µM (inactive) in the experiment with HOP-62; 1.03 µM (active) with 786-0; 3.79 µM (inactive) with SK-MEL-2; 0.824 µM (active) with HL-60; 0.396 µM (active) in the experiment with NCI-H460. Also, the GI50 in the experiment with UACC-62 was 2.83 µM (inactive); with MDA-MB-435 it was 1.58 µM (inactive).

Take `CCOc1cnc(C(O)(c2ccccc2)c2ccccc2)o1`: the GI50 is > 100 µM (inactive) with OVCAR-8; 77.1 µM with HCT-15; > 100 µM (inactive) in the experiment on MCF7; > 100 µM (inactive) with CAKI-1; > 100 µM (inactive) with RPMI-8226; 58.9 µM (inactive) in the experiment with HOP-92. Also, the GI50 in the experiment on SK-MEL-5, with NCI-H522, with RXF 393, with COLO 205, with SNB-75 and with SNB-19 was > 100 µM (inactive) in each case. For the same molecule, the GI50 in the experiment on HCT-116, with HOP-62, with 786-0, in the experiment on SK-MEL-2, with HL-60 and in the experiment on NCI-H460 was > 100 µM (inactive) throughout. Also, the GI50 in the experiment with UACC-62 and in the experiment on MDA-MB-435 was > 100 µM (inactive) each time.

Take `CCOC(=O)c1ccc2nc(-c3ccc(S(=O)(=O)F)cc3)cc(O)c2c1`: the GI50 in the experiment on OVCAR-8 is 61.2 µM (inactive); in the experiment with HCT-15 it was 31.6 µM; in the experiment with MCF7, 30.1 µM (inactive); in the experiment on CAKI-1 it was 39.9 µM (inactive); with RPMI-8226, 45.9 µM (inactive); in the experiment on HOP-92, > 100 µM (inactive). Moreover, the GI50 with SK-MEL-5 was 50.2 µM (inactive); in the experiment on NCI-H522, 15.8 µM (inactive); in the experiment with RXF 393 it was 31.9 µM (inactive); in the experiment with COLO 205, 58.9 µM (inactive); in the experiment with SNB-75, 25.2 µM (inactive); in the experiment on SNB-19, > 100 µM (inactive). The GI50 in the experiment on HCT-116 was 23.1 µM (inactive); with HOP-62 it was 32.5 µM (inactive); in the experiment on 786-0, 36.4 µM (inactive); in the experiment on SK-MEL-2, 27.5 µM (inactive); in the experiment on HL-60 it was 26.7 µM (inactive); with NCI-H460 it was 34.4 µM (inactive). Further, the figures for the GI50 with UACC-62 and in the experiment on MDA-MB-435 were 24 µM (inactive) and 40.9 µM (inactive), respectively.

`CN(C)c1ccc(C=c2c3ccccc3n3c2c2c([n+]3C)CCCC2)cc1`: the GI50 was 0.128 µM (active) with OVCAR-8; 1.87 µM in the experiment on HCT-15; 0.0491 µM (active) with MCF7; 0.908 µM (active) in the experiment with CAKI-1; 0.0352 µM (active) with RPMI-8226; 0.046 µM (active) in the experiment with HOP-92. The GI50 with SK-MEL-5 was 0.0687 µM (active); in the experiment with NCI-H522, 0.161 µM (active); with RXF 393, 0.106 µM (active); in the experiment with COLO 205 it was 0.0301 µM (active); in the experiment on SNB-75, 0.0796 µM (active); in the experiment with SNB-19 it was 0.0698 µM (active). For the same molecule, the GI50 in the experiment on HCT-116 is 0.0537 µM (active); in the experiment with HOP-62, 0.165 µM (active); in the experiment on 786-0 it was 0.261 µM (active); in the experiment on SK-MEL-2, 0.173 µM (active); in the experiment with HL-60, 0.075 µM (active); with NCI-H460, 0.11 µM (active). In addition, the GI50 in the experiment with UACC-62 is 0.42 µM (active); in the experiment on MDA-MB-435 it was 0.109 µM (active).

Regarding `O=C(O)c1c(CC(Cc2ccccc2)C(=O)O)ccc2c1CCC2` (stereo not given), the GI50 with OVCAR-8 was > 100 µM (inactive); in the experiment with HCT-15, > 100 µM; with MCF7, > 100 µM (inactive); in the experiment on CAKI-1, > 100 µM (inactive); in the experiment with RPMI-8226, > 100 µM (inactive); with HOP-92, > 100 µM (inactive). Further, the GI50 in the experiment with SK-MEL-5, in the experiment on NCI-H522, with RXF 393, in the experiment with COLO 205, with SNB-75 and in the experiment on SNB-19 was > 100 µM (inactive) each time. For the same molecule, the GI50 in the experiment on HCT-116, with HOP-62, in the experiment with 786-0, in the experiment with SK-MEL-2, in the experiment on HL-60 and in the experiment on NCI-H460 was > 100 µM (inactive) in each case. In addition, the GI50 in the experiment on UACC-62 is 4.11 µM (inactive); with MDA-MB-435, > 100 µM (inactive).

These data come from ChEMBL document CHEMBL1201862, “PubChem BioAssay data set” (2004).
